Assay results as given in US20250064789A1, “KETOAMIDE DERIVATIVES AND PHARMACEUTICAL USES THEREOF” (priority 2022, published 2025).

Legend:
[1] = molecular target: recombinant SARS-CoV-2 M^pro (Severe acute respiratory syndrome coronavirus 2 (2019-nCoV) (SARS-CoV-2), UniProt P0DTD1); assay: Inhibition of SARS-CoV-2 M^pro enzyme activity (fluorescent substrate assay); type: biochemical; settings: inhibition of SARS-CoV-2 M^pro enzyme activity; values in nM; read-out: IC50
[2] = Cytotoxic assay against Vero E6 cells (MTT, 72 h); type: cell-based; settings: African green monkey
Method: The cytotoxicity assessment of compounds was performed against Vero E6 cells. The specific experimental procedures: Vero E6 cells were seeded into a 96-well plate at a cell density of 2×10^4 cells/well, with 100 μL/well, and then incubated overnight at 37° C. in a 5% CO2 incubator. The next day, 100 μL of drug-containing medium was added to each well. The compound was diluted in a 2-fold serial dilution with a top concentration of […], for a total of 6 gradients. Three repeated wells were set for each concentration, and negative controls and blank controls without drugs were included for each experiment. […] All experimental data were analyzed using GraphPad Prism software.

[3] = Cytotoxic assay against HUVEC cells (MTT, 72 h); type: cell-based, human; settings: human
Method: (§1) BEAS-2B cells (normal human bronchial epithelial cells) and HUVEC cells (human umbilical vein endothelial cells) were used to evaluate the cytotoxicity of compounds against human-derived cells. The detailed experimental procedures: BEAS-2B cells or HUVEC cells were seeded into a 96-well plate at a cell density of 2×10^4 cells/well, that is, 100 µL/well, and then incubated overnight at 37° C. in a 5% CO2 incubator. The next day, 100 μL of drug-containing medium was added to each well. The compound was diluted in a 2-fold serial dilution with a top concentration of […], for a total of 6 gradients. Three repeated wells were set for each concentration, and negative controls and blank controls without drugs were included for each experiment. […] All experimental data were analyzed using GraphPad Prism software.

[4] = Metabolic stability using human liver microsomes; type: in vitro ADME; settings: pH 7.4, NADPH, 37° C., read-out: Human liver microsomes T1/2
[5] = Cytotoxic assay against human BEAS-2B cells (MTT, 72 h); type: cell-based; settings: human
Method: as §1

[6] = male, Sprague-Dawley, rat, in vivo, iv, 1 mg/kg
in vivo = settings: male, Sprague-Dawley, rat
human thrombin = human thrombin (Homo sapiens (Human), UniProt P00734); assay: Human protease biochemical activity assay: Thrombin activity testing kit; settings: read-out: Thrombin IC50
Method: (§2) The biochemical activity of compounds against human proteases was determined using Cathepsin K inhibitor screening kit (K150-100), Cathepsin B inhibitor screening kit (K147-100), Thrombin activity testing kit (K373-100), Caspase-2 inhibitor screening kit (K152-100), and Cathepsin D inhibitor screening kit (K148-100) according to the instructions of the kits (Biovision, USA). All experiments were carried out in triplicate. All experimental data were analyzed using GraphPad Prism software.

human cathepsin B = human cathepsin B (Homo sapiens (Human), UniProt P07858); assay: Human protease biochemical activity assay: Cathepsin B inhibitor screening kit
Method: as §2

human cathepsin D = human cathepsin D (Homo sapiens (Human), UniProt P07339); assay: Human protease biochemical activity assay: Cathepsin D inhibitor screening kit
human cathepsin D, sequence (P07339 65-412): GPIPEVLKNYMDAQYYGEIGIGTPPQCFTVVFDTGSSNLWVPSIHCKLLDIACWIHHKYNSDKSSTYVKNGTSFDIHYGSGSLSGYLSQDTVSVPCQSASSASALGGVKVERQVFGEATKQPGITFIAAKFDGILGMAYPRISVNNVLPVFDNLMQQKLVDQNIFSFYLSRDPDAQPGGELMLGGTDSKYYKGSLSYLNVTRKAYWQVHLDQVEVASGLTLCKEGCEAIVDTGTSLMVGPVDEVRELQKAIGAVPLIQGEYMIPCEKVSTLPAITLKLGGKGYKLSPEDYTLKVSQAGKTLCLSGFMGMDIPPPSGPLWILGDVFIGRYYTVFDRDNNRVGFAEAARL
Method: as §2

human caspase 2 = human caspase 2 (Homo sapiens (Human), UniProt P42575); assay: Human protease biochemical activity assay: Caspase-2 inhibitor screening kit; settings: read-out: Caspase-2 IC50
human caspase 2, sequence (P42575 170-325): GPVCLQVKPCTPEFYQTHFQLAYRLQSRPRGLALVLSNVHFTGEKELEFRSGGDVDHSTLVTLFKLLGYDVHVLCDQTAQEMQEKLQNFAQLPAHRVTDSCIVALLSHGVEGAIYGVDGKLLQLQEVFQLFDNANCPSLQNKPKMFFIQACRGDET
human caspase 2, sequence (P42575 348-452): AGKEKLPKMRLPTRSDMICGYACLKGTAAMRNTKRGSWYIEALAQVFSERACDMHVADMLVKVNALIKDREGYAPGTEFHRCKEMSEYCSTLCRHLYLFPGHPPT
Method: as §2

human cathepsin K = human cathepsin K (Homo sapiens (Human), UniProt P43235); assay: Human protease biochemical activity assay: Cathepsin K inhibitor screening kit; settings: read-out: Cathepsin K IC50
human cathepsin K, sequence (P43235 115-329): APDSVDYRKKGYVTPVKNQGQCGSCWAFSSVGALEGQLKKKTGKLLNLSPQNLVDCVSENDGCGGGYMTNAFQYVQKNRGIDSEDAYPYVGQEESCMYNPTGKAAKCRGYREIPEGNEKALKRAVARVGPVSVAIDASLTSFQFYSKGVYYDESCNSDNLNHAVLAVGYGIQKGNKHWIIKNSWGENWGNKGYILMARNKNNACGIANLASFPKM
Method: as §2

SMILES	IC50 [1]	CC50 at 72 h [2]	CC50 at 72 h [3]	half-life at 1 µM [4]	CC50 at 72 h [5]	AUC(0-inf) (in vivo; po, 10 mg/kg)	AUC(0-t) (in vivo; po, 10 mg/kg)	Cmax (in vivo; po, 10 mg/kg)	MRT inf (in vivo; po, 10 mg/kg)	Tmax (in vivo; po, 10 mg/kg)	half-life (in vivo; po, 10 mg/kg)	also measured
C[C@@H](NC(=O)C1CCC(F)(F)CC1)C(=O)N[C@H](Cc1ccco1)C(=O)C(=O)NCc1ccccn1 [Compound 362]	34 ± 0.6 nM	> 500 µM	> 500 µM	0.561 h	> 500 µM	–	–	–	–	–	–	–
C[C@@H](NC(=O)C1CCCC(F)(F)C1)C(=O)N[C@H](Cc1ccccc1)C(=O)C(=O)NCc1nccs1 (some centres unmarked) [Compound 375]	13.8 ± 1.2 nM	> 500 µM	384 µM	–	325 µM	–	–	–	–	–	–	–
C[C@@H](NC(=O)N1CCC(F)(F)CC1)C(=O)N[C@H](Cc1ccccc1)C(=O)C(=O)NCc1ccccn1 [Compound 296, N—((R)-1-(((R)-3,4-dioxo-1-phenyl-4-((pyridin-2-ylmethyl)amino)butan-2-yl)amino)-1-oxopropan-2-yl)-4,4-difluoropiperidin-1-formamide]	14.8 ± 0.1 nM	–	–	–	–	5.19 ± 1.01 µg·h/mL	5.18 ± 1.01 µg·h/mL	1.04 ± 0.209 µg/mL	4.43 ± 0.87 h	0.25 h	2.8 ± 0.09 h	Vssobs [6]: 16.3 ± 2.68 L/kg; AUC(0-inf) (in vivo; iv, 1 mg/kg): 1.04 ± 0.162 µg·h/mL; AUC(0-t) (in vivo; iv, 1 mg/kg): 1.02 ± 0.156 µg·h/mL; Cmax (in vivo; iv, 1 mg/kg): 1.4 ± 0.0229 µg/mL; MRT inf (in vivo; iv, 1 mg/kg): 1.17 ± 0.44 h; Tmax (in vivo; iv, 1 mg/kg): 0.08 h; clearance (in vivo; iv, 1 mg/kg): 0.279 ± 0.232 L/h/kg; half-life (in vivo; iv, 1 mg/kg): 3.55 ± 3.39 h; bioavailability (in vivo; po, 10 mg/kg): 50.6 ± 9.84%
C[C@@H](NC(=O)CC1CC1(F)F)C(=O)N[C@H](Cc1ccccc1)C(=O)C(=O)NCc1cscn1 (some centres unmarked) [Compound 417]	22.1 ± 3 nM	> 500 µM	> 500 µM	0.534 h	> 500 µM	5.07 ± 2.29 µg·h/mL	4.89 ± 2.32 µg·h/mL	0.441 ± 0.225 µg/mL	6.55 ± 0.39 h	3.33 ± 1.15 h	5.07 ± 1.78 h	IC50 (human thrombin): > 100 µM; IC50 (human cathepsin B): > 100 µM; IC50 (human cathepsin D): > 100 µM; IC50 (human caspase 2): > 100 µM; IC50 (human cathepsin K): > 100 µM
C[C@@H](NC(=O)C1CCC(F)(F)C1)C(=O)N[C@H](Cc1ccccc1)C(=O)C(=O)NCc1cscn1 (some centres unmarked) [Compound 415]	19.4 ± 2.2 nM	> 500 µM	468 µM	–	> 500 µM	–	–	–	–	–	–	–
C[C@@H](NC(=O)[C@@H]1C[C@@H]2[C@H](C1)C2(F)F)C(=O)N[C@H](Cc1ccccc1)C(=O)C(=O)NCc1ccccn1 [Compound 126]	11.1 ± 0.6 nM	> 500 µM	–	–	–	5.27 ± 0.327 µg·h/mL	5.27 ± 0.325 µg·h/mL	1.559 ± 0.0116 µg/mL	4.02 ± 0.17 h	0.5 h	2.46 ± 0.15 h	Vssobs [6]: 16.6 ± 5.41 L/kg; AUC(0-inf) (in vivo; iv, 1 mg/kg): 1.07 ± 0.295 µg·h/mL; AUC(0-t) (in vivo; iv, 1 mg/kg): 1.05 ± 0.285 µg·h/mL; Cmax (in vivo; iv, 1 mg/kg): 1.86 ± 0.138 µg/mL; MRT inf (in vivo; iv, 1 mg/kg): 1.06 ± 0.56 h; Tmax (in vivo; iv, 1 mg/kg): 0.08 h; clearance (in vivo; iv, 1 mg/kg): 0.278 ± 0.217 L/h/kg; half-life (in vivo; iv, 1 mg/kg): 3.65 ± 3.48 h; bioavailability (in vivo; po, 10 mg/kg): 49.9 ± 3.08%
CC(C)(NC(=O)[C@@H]1C[C@@H]2[C@H](C1)C2(F)F)C(=O)N[C@H](Cc1ccccc1)C(=O)C(=O)NCc1ccccn1 [Compound 174]	13.2 ± 1 nM	> 500 µM	–	–	–	–	–	–	–	–	–	–
CC(C)(C(=O)NCC1CCC(F)(F)CC1)C(=O)N[C@H](Cc1ccccc1)C(=O)C(=O)NCc1ccccn1 [Compound 324, (R)—N^1-((4,4-difluorocyclohexyl)methyl)-N^3-(3,4-dioxo-1-phenyl-4-((pyridin-2-ylmethyl)amino)butan-2-yl)-2,2-dimethylmalonamide]	9.6 ± 0.1 nM	> 500 µM	–	–	–	–	–	–	–	–	–	–
CC(C)(C)[C@H](NC(=O)C(F)(F)F)C(=O)N1C[C@H]2[C@@H]([C@H]1C(=O)N[C@H](C#N)C[C@@H]1CCNC1=O)C2(C)C [PF-07321332, Nirmatrelvir, reference compound]	–	–	–	0.353 h	–	–	–	–	–	–	–	–
O=C(NCc1nccs1)C(=O)[C@@H](Cc1ccccc1)NC(=O)[C@H]1CC(F)(F)CN1C(=O)C1CCC(F)(F)CC1 [Compound 402]	19.9 ± 0.3 nM	410 µM	327 µM	–	> 500 µM	–	–	–	–	–	–	–
